Consider four molecules from US9452994B2, “Manufacturing process for pyrimidine derivatives” (Novartis AG, priority 2010, dated 2016).

The nature of this data set: moisture uptake of solid forms at given relative humidity. It counts as physicochemical.

Take `Cl.Nc1cc(C(F)(F)F)c(-c2cc(N3CCOCC3)nc(N3CCOCC3)n2)cn1.O` [5-(2,6-Di-4-morpholinyl-4-pyrimidinyl)-4-(trifluoromethyl)pyridin-2-amine monohydrate monohydrochloride]: the moisture uptake is 4.4% (75% relative humidity) and 4.9% (95% relative humidity). In the case of `Cl.Nc1cc(C(F)(F)F)c(-c2cc(N3CCOCC3)nc(N3CCOCC3)n2)cn1` [5-(2,6-Di-4-morpholinyl-4-pyrimidinyl)-4-(trifluoromethyl)pyridin-2-amine monohydrochloride], the “hygroscopicity (in words)” value is reported as “only slightly hydroscopic”. In addition, for the setting “25° C., up to 92% relative humidity”, the maximum moisture uptake entry is given as “less than 0.1%”. As to `Nc1cc(C(F)(F)F)c(-c2cc(N3CCOCC3)nc(N3CCOCC3)n2)cn1` [5-(2,6-Di-4-morpholinyl-4-pyrimidinyl)-4-trifluoromethylpyridin-2-amine], the moisture uptake (85% relative humidity) was 8.9%. “5-(2,6-Di-4-morpholinyl-4-pyrimidinyl)-4-trifluoromethylpyridin-2-amine hemihydrate” had a moisture uptake (25% relative humidity) of 1.9%.
